Measurements from patent publication US7238813B2, “Chemical compounds” (Smithkline Beecham Corporation, priority 2000, dated 2007).
Where a name gives a salt, the structure may show the parent alone.

Experiments:
[1] = biological target: T1, TIE2 intracellular domain/c-fms extracellular domain (TIE2/c-fms) chimeric protein expressing mouse 3T3 cells (Homo sapiens, UniProt Q02763); assay: TIE-2 autophosphorylation assay (TIE2-C), ELISA; format: cell-based; conditions: TIE2/c-fms 3T3 cells, MCSF activation
T1 construct: a TIE2 intracellular domain/c-fms extracellular domain (TIE2/c-fms) chimeric protein; expressed in transfected cells; host or cells: mouse 3T3 cells
T1 sequence (Q02763 770-1124 limits assumed, change not shown): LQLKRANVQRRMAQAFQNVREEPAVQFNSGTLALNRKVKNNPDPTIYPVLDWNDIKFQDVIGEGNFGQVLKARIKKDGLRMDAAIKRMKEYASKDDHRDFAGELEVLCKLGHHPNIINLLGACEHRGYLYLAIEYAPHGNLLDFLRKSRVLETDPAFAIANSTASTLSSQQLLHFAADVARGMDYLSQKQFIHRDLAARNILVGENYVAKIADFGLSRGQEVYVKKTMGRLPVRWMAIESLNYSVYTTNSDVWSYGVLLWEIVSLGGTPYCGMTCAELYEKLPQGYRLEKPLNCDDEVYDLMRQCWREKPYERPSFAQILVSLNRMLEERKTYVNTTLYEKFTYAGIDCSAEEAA
Procedure: TIE-2 Autophosphorylation Assay (TIE2-C)
The TIE-2 autophosphorylation assay used an ELISA method and a TIE2 intracellular domain/c-fms extracellular domain (TIE2/c-fms) chimeric protein expressing mouse 3T3 cells. This assay measured the autophosphorylation level of TIE2 protein expressed in cells. The cells were cultured in high glucose DMEM (Sigma) containing 10% serum at 37° C. in a humidified 10% CO2, 90% air incubator. The test compound (diluted from a 10 mM stock in DMSO, final DMSO concentration was 0.1%) was incubated with TIE2/c-fms expressing cells for 1 hr in serum free DMEM in 96 well plates followed by the activation of TIE2/c-fms receptor using c-fms ligand, MCSF (macrophage colony stimulating factor). The culture media was removed by aspiration and the cells incubated for at least 30 mins on ice with lysis buffer containing 137 mM NaCl, 2 mM EDTA, 10% glycerol, […] sodium ortho vanadate and complete protease inhibitor cocktail (Roche) in 20 mM Tris-HCl (pH8.0). The cell extracts were transferred into Rat anti-c-fms antibody coated 96 well plates and incubated for 12 hrs at 4° C. The extracts were removed by aspiration and the plate was incubated with biotinylated anti-phosphotyrosine antibody, PT66 (Sigma) and then with HRP (Horseradish Peroxidase)-labeled streptavidin (PIERCE). The optical density at 450 nm derived from HRP catalyzed TMB was measured with an ARVO multilabel counter. (Wallac Berthold Japan). The percent inhibition of activity was calculated relative to blank control wells. The concentration of test compound that inhibits 50% of activity (IC50) was interpolated using nonlinear regression (Levernberg-Marquardt) and the equation, y=Vmax (1−x/(K+x))+Y2, where “K” was equal to the IC50. The IC50 values were converted to pIC50 values, i.e., −log IC50 in Molar concentration.

[2] = biological target: T2, GST-TIE2 (intracellular domains of human TIE2) (Homo sapiens, UniProt Q02763); assay: TIE-2 enzyme assay (TIE2-E), LANCE method; format: biochemical; conditions: 80 uM ATP
T2 construct: made in house
T2 sequence (Q02763 762-1104): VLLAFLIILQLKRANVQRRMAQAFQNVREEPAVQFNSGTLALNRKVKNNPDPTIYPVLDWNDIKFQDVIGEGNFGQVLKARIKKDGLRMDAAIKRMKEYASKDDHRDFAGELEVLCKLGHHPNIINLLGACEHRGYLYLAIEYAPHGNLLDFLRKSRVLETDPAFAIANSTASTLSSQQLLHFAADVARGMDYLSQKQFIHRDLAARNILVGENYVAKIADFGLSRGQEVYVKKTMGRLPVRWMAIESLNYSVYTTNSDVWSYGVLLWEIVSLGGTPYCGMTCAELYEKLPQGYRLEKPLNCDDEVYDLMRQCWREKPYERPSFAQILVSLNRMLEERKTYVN
Procedure: TIE-2Enzyme Assay (TIE2-E)
The TIE-2 enzyme assay used the LANCE method (Wallac) and GST-TIE2, baculovirus expressed recombinant constructs of the intracellular domains of human TIE2 (amino acids 762–1104, GenBank Accession # L06139) tagged by GST). […] This peptide phosphorylation was detected using the following procedure: for enzyme preactivation, GST-TIE2 was incubated for 30 mins at room temperature with 2 mM ATP, 5 mM MgCl2 and 12.5 mM DTT in 22.5 mM HEPES buffer (pH7.4). Preactivated GST-TIE2 was incubated for 30 mins at room temperature in 96 well plates with 1 μM D1-15 peptide, 80 uM ATP, 10 mM MgCl2, 0.1 mg/ml BSA and the test compound (diluted from a 10 mM stock in DMSO, final DMSO concentration was 2.4%) in 1 mM HEPES (pH7.4). The reaction was stopped by the addition of EDTA (final concentration 45 mM). Streptavidin linked-APC (allophycocyanin, Molecular Probe) and Europium-labeled anti-phosphorylated tyrosine antibody (Wallac) were then added at the final concentration of 17 μg/well and 2.1 μg/well, respectively. The APC signal was measured using an ARVO multilabel counter. (Wallac Berthold Japan). The percent inhibition of activity was calculated relative to blank control wells. The concentration of test compound that inhibits 50% of activity (IC50) was interpolated using nonlinear regression (Levernberg-Marquardt) and the equation, y=Vmax (1−x/(K+x))+Y2, where “K” was equal to the IC50. The IC50 values were converted to pIC50 values, i.e., −log IC50 in Molar concentration.

GST-VEGFR2 = biological target: T3, GST-VEGFR2 (Homo sapiens, UniProt P35968); assay: VEGF-R2 enzyme assay (VEGF-E), LANCE method; format: biochemical; conditions: 75 μM ATP
T3 construct: GST-VEGFR2, baculovirus expressed recombinant constructs of the intracellular domains of human TIE2 tagged by GST; made in house
T3 sequence (P35968 786-1356 limits assumed): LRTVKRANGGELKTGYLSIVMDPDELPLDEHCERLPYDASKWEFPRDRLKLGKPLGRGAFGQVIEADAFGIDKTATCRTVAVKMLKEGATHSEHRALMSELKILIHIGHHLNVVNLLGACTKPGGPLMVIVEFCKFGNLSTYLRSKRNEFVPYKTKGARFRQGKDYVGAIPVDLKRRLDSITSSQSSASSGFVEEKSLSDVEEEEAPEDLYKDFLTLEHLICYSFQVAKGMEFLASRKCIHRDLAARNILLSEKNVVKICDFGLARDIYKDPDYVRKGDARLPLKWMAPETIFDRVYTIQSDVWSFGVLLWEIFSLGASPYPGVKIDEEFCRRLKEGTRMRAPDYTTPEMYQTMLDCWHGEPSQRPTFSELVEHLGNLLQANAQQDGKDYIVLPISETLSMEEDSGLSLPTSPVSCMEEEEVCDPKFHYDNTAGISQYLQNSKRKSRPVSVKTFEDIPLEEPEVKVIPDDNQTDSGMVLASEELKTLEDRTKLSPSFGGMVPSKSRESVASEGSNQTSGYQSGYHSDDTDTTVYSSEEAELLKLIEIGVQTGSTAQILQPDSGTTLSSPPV
Procedure: VEGF-R2 Enzyme Assay (VEGF-E)
The VEGF enzyme assay used the LANCE method (Wallac) and GST-VEGFR2, baculovirus expressed recombinant constructs of the intracellular domains of human […] tagged by GST. […] The reaction was stopped by the addition of EDTA (final concentration 50 mM). Streptavidin linked-APC (allophycocyanin, Molecular Probe) and Europium-labeled anti-phosphorylated tyrosine antibody (Wallac) were then added at the final concentration of 15 nM and 1 nM, respectively. The APC signal was measured using an ARVO multilabel counter (Wallac Berthold, Japan). The percent inhibition of activity was calculated relative to blank control wells. The concentration of test compound that inhibits 50% of activity (IC50) was interpolated using nonlinear regression (Levernberg-Marquardt) and the equation, y=Vmax (1−x/(K+x))+Y2, where “K” was equal to the IC50. The IC50 values were converted to pIC50 values, i.e., −log IC50 in Molar concentration.

An IC50 [1] of 100 to 1000 nM, an IC50 [2] of under 100 nM and an IC50 (GST-VEGFR2) of under 100 nM were found for O=C(Nc1ccc(Oc2ccc3nc(NC(=O)c4c[nH]c5ccccc45)[nH]c3c2)cc1)Nc1cc(C(F)(F)F)ccc1F [Example 95, N-(5-(4-((2-Fluoro-5-(trifluoromethyl)phenyl)aminocarbonylamino)phenoxy)-1H-benzimidazol-2-yl)(1H-indole-3-carboxamide)] in this work.

An IC50 [1] of 1000 to 10000 nM, an IC50 [2] of under 100 nM and an IC50 (GST-VEGFR2) of under 100 nM were found for O=C(Nc1ccc(Oc2ccc3nc(NC(=O)c4ccc(-n5cccc5)cc4)[nH]c3c2)cc1)Nc1cc(C(F)(F)F)ccc1F [Example 90, N-(5-(4-((2-Fluoro-5-(trifluoromethyl)phenyl)aminocarbonylamino)phenoxy)-1H-benzimidazol-2-yl)-4-(pyrrol-1-yl)benzamide] in this work.

An IC50 [1] of 100 to 1000 nM, an IC50 [2] of under 100 nM and an IC50 (GST-VEGFR2) of 100 to 1000 nM were found for COC(=O)Nc1nc2ccc(Oc3ccc(NC(=O)Nc4cc(C(F)(F)F)ccc4F)c[n+]3[O-])cc2[nH]1 [Example 107, Methyl N-(5-(5-((2-fluoro-5-(trifluoromethyl)phenyl)aminocarbonylamino)-1-oxo-2-pyridyloxy)-1H-benzimidazol-2-yl)carbamate] in this work.

An IC50 [1] of 100 to 1000 nM, an IC50 [2] of 100 to 1000 nM and an IC50 (GST-VEGFR2) of under 100 nM were found for CN1CCN(CCNc2nc3cc(Oc4ccc(NC(=O)Nc5cc(C(F)(F)F)ccc5F)cc4)ccc3[nH]2)CC1 [Example 104, 2-(2-(4-Methyl-1-piperazino)ethylamino)-5-(4-((2-fluoro-5-(trifluoromethyl)phenyl)aminocarbonylamino)phenoxy)-1H-benzimidazole] in this work.

An IC50 [1] of 1000 to 10000 nM, an IC50 [2] of 100 to 1000 nM and an IC50 (GST-VEGFR2) of under 100 nM were found for CN(C)CCNc1nc2cc(Oc3ccc(NC(=O)Nc4cc(C(F)(F)F)ccc4F)cc3)ccc2[nH]1 [Example 105, 2-(2-(Dimethylamino)ethylamino)-5-(4-((2-fluoro-5-(trifluoromethyl)phenyl)aminocarbonylamino)phenoxy)-1H-benzimidazole] in this work.

An IC50 [1] of 100 to 1000 nM, an IC50 [2] of 100 to 1000 nM and an IC50 (GST-VEGFR2) of under 100 nM were found for COC(=O)Nc1nc2ncc(Oc3ccc(NC(=O)Nc4cc(C(F)(F)F)ccc4Cl)cc3)cc2[nH]1 [Example 73, Methyl N-(6-(4-((2-chloro-5-(trifluoromethyl)phenyl)aminocarbonylamino)phenoxy)-3,4-diaza-1H-indole-2-yl)carbamate dihydrochloride] in this work.

An IC50 [1] of under 100 nM, an IC50 [2] of under 100 nM and an IC50 (GST-VEGFR2) of under 100 nM were found for COC(=O)Nc1nc2c(Br)cc(Oc3ccc(NC(=O)Nc4cc(C(F)(F)F)ccc4F)cc3)cc2s1.Cl [Example 65, Methyl N-(4-bromo-6-(4-((6-fluoro-3-(trifluoromethylphenyl)aminocarbonylamino)phenoxy)benzthiazol-2-yl)carbamate hydrochloride] in this work.

An IC50 [1] of 100 to 1000 nM and an IC50 [2] of 1000 to 10000 nM were found for COC(=O)Nc1nc2ccc(Oc3ccc(NC(=S)Nc4cccc(C(F)(F)F)c4)cc3)cc2[nH]1 [Example 186, Methyl N-(5-(4-((3-(trifluoromethyl)phenyl)aminothiocarbonylamino)phenoxy)-1H-benzimidazol-2-yl)carbamate] in this work.

An IC50 [1] of 1000 to 10000 nM, an IC50 [2] of 1000 to 10000 nM and an IC50 (GST-VEGFR2) of under 100 nM were found for COC(=O)Nc1nc2cc(Oc3ccc(NC(=S)Nc4cccc(Cl)c4)cc3)ccc2[nH]1 [Example 184, Methyl N-(5-(4-((3-chlorophenyl)aminothiocarbonylamino)phenoxy)-1H-benzimidazol-2-yl)carbamate] in this work.

An IC50 [1] of 100 to 1000 nM, an IC50 [2] of 100 to 1000 nM and an IC50 (GST-VEGFR2) of 100 to 1000 nM were found for CCc1cccc(NC(=O)Nc2ccc(Oc3ccc4[nH]c(NC(=O)OC)nc4c3)nc2)c1 [Example 39, Methyl N-(5-(5-((3-ethylphenyl)aminocarbonylamino)-2-pyridyloxy)-1H-benzimidazol-2-yl)carbamate] in this work.

An IC50 [1] of under 100 nM, an IC50 [2] of under 100 nM and an IC50 (GST-VEGFR2) of under 100 nM were found for CCc1cccc(NC(=O)Nc2cccc(Oc3ccc4[nH]c(NC(=O)OC)nc4c3)c2)c1 [Example 16, Methyl N-(5-(3-((3-ethylphenyl)aminocarbonylamino)phenoxy)-1H-benzimidazol-2-yl)carbamate] in this work.

An IC50 [1] of 100 to 1000 nM and an IC50 [2] of 100 to 1000 nM were found for COC(=O)Nc1nc2cc([S+]([O-])c3ccc(NC(=O)Nc4cc(Cl)ccc4Cl)cc3)ccc2[nH]1 (centres unmarked) [Example 79, Methyl N-(5-(4-((2,5-dichlorophenyl)aminocarbonylamino)phenylsulfinyl)-1H-benzimidazol-2-yl)carbamate] in this work.

An IC50 [1] of under 100 nM, an IC50 [2] of under 100 nM and an IC50 (GST-VEGFR2) of under 100 nM were found for O=C(Nc1ccc(Oc2ccc3nc(NC(=O)c4cccs4)[nH]c3c2)cc1)Nc1cc(C(F)(F)F)ccc1F [Example 100, N-(5-(4-((2-Fluoro-5-(trifluoromethyl)phenyl)aminocarbonylamino)phenoxy)-1H-benzimidazol-2-yl)-2-thiophenecarboxamide] in this work.

An IC50 [1] of 100 to 1000 nM, an IC50 [2] of 100 to 1000 nM and an IC50 (GST-VEGFR2) of under 100 nM were found for CN1CCN(CCCNc2nc3ccc(Oc4ccc(NC(=O)Nc5cc(C(F)(F)F)ccc5F)cc4)cc3[nH]2)CC1 [Example 106, 2-(3-(4-methyl-1-piperazino)propylamino)-5-(4-((2-fluoro-5-(trifluoromethyl)phenyl)aminocarbonylamino)phenoxy)-1H-benzimidazole] in this work.

An IC50 [1] of 100 to 1000 nM and an IC50 [2] of under 100 nM were found for COC(=O)Nc1nc2cc(Sc3ccc(NC(=O)Nc4cc(Cl)ccc4Cl)cc3)ccc2[nH]1 [Example 57, Methyl N-(5-(4-((2,5-dichlorophenyl)aminocarbonylamino)phenylthio)-1H-benzimidazol-2-yl)carbamate] in this work.

An IC50 [1] of 100 to 1000 nM and an IC50 [2] of under 100 nM were found for O=C(Nc1ccc(Oc2ccc3[nH]c(NC(=O)c4ccccc4)nc3c2)cc1)Nc1cc(C(F)(F)F)ccc1F [Example 99, N-(5-(4-((2-Fluoro-5-(trifluoromethyl)phenyl)aminocarbonylamino)phenoxy)-1H-benzimidazol-2-yl)benzamide] in this work.

An IC50 [1] of 100 to 1000 nM, an IC50 [2] of under 100 nM and an IC50 (GST-VEGFR2) of under 100 nM were found for COC(=O)Nc1nc2ccc(Oc3cccc(NC(=O)Nc4cc(C(F)(F)F)ccc4Cl)c3)cc2[nH]1 [Example 52, Methyl N-(5-(3-((2-chloro-5-(trifluoromethyl)phenyl)aminocarbonylamino)phenoxy)-1H-benzimidazol-2-yl)carbamate hydrochloride] in this work.

An IC50 [1] of 100 to 1000 nM, an IC50 [2] of 100 to 1000 nM and an IC50 (GST-VEGFR2) of 100 to 1000 nM were found for COC(=O)Nc1nc2cc(Oc3ccc(NC(=O)Nc4cc(Cl)ccc4Cl)cn3)ccc2[nH]1 [Example 112, Methyl N-(5-(5-((2,5-dichlorophenyl)aminocarbonylamino)-2-pyridyloxy)-1H-benzimidazol-2-yl)carbamate dihydrochloride] in this work.

An IC50 [1] of 100 to 1000 nM, an IC50 [2] of under 100 nM and an IC50 (GST-VEGFR2) of 100 to 1000 nM were found for CC(=O)Nc1nc2ccc(Oc3ccc(NC(=O)Nc4cc(C(F)(F)F)ccc4F)nc3)cc2n1Cc1ccccc1 [Example 110] in this work.
